# Results reported in US20060002946A1, “Targeted immunogens” (Aventis Pasteur, Inc., priority 2003, published 2006).
# “Also recorded” adds a separate entry of the source.
# Assays:
# C57BL/6 mice [1] = assay: i.v. injection of peptide-pulsed dendritic cells, CTL chromium release (FIG. 4); type: in vivo, mouse; conditions: 5×10^5 pulsed DCs i.v., one week post immunization, SIINFEKL-pulsed targets
# Method: FIG. 4. CTL responses in C57BL/6 nice following intravenous (i.v.) injection of peptide-pulsed DCs. Mice were immunized i.v. with 5×10^5 bone marrow-derived DCs pulsed with the indicated peptides.
# Consequently, we tested the ability of transcytosis peptides to generate CTL responses in the context of a DC-based vaccine. Murine bone marrow derived dendritic cells were matured in vitro, pulsed with either […] alone, conjugated with either Tat or hPER1 with or without linkers, and were injected intravenously in the tail vein of C57BL/6 mice. One week post immunization, the splenocytes from vaccinated animals were tested for CTL activity following in vitro restimulation.
# mice = assay: Summary of in vivo Immunogenicity Studies (Table IV); set-up: species or system mouse
# [2] = test system: HLA-A2/Kb transgenic mice; assay: s.c. peptide immunization, gp100-154 CTL chromium release (FIG. 5); conditions: 50 ug s.c., boosts days 21 and 42, day 63
# Method: CTL responses in HLA-A2/Kb transgenic mice following subcutaneous (s.c.) injection of peptide. Mice were immunized s.c. with 50 ug of the indicated peptides and boosted on days 21 and 42 following the first injection. Splenocytes from immunized animals were harvested on day 63 post immunization, re-stimulated with the native gp100-154 peptide for 5 days, and tested for CTL activity in a standard chromium release assay using target cells pulsed with gp100-154 peptide.
# Furthermore, CTL responses were assessed in HLA-A2/K^b transgenic mice (Sherman strain) following s.c. immunization with gp100-154 peptide alone, conjugated to hPER1 or AntpHD with or without linker FVYVW. Mice were boosted on days 21 and 42 and splenocytes from vaccinated animals were harvested on day 63 and tested for CTL activity after 5 days of restimulation in vitro.
# [3] = test system: Splenocytes from C57BL/6 mice; assay: In vitro analysis of OVA ([…]) peptide presentation, IFN-γ ELISPOT (FIG. 11); type: cell-based, mouse; conditions: 10 ug/ml pulse 1 hour; for stimulatory activity of pulsed cells after 30 hours: 30 hours incubation, IFN-γ ELISPOT
# Method: FIG. 11. In vitro analysis of OVA ([…]) peptide presentation. Splenocytes from C57BL/6 mice were pulsed with 10 ug/ml of the indicated peptides for 1 hour at 37° C., washed, and incubated for 0, 4, 8, 24, or 30 hours. Cells pulsed with transduction peptides were pre-incubated with a bGAL peptide to block any cell surface binding. The cells were then tested by ELISPOT for their ability to induce IFN-γ secretion from […]-specific T cells. Spot counts greater than 300/well could not be counted. *=sample not tested.
# To further study the effect of coupling CTL epitopes to the hPER1 transduction domain, the following in vitro assay was developed to assess the kinetics of antigen presentation following incubation of cells with peptide. In FIG. 11, splenocytes from C57BL/6 mice were incubated with different OVA-based peptides for 1 hour at 37° C. The cells were then washed to remove any residual free peptide, and incubated in culture medium at 37° C. for 0, 4, 8, 24 or 30 hours. The cells were then tested for their ability to stimulate IFN-γ production from […]-specific T cells by ELISPOT.
# [4] = test system: Splenocytes from C57BL/6 mice; assay: In vitro analysis of NP peptide presentation, IFN-γ ELISPOT (FIG. 12); type: cell-based, mouse; conditions: 10 ug/ml pulse 1 hour; for duration of ability of pulsed cells to stimulate T cells: incubation up to 120 hours (limit of the assay)
# Method: FIG. 12. In vitro analysis of NP peptide presentation. Splenocytes from C57BL/6 mice were pulsed with 10 ug/ml of the indicated peptides for 1 hour at 37C., washed, and incubated for 0, 24, 72, or 120 hours. Cells were then tested by ELISPOT for their ability to induce IFN-γ secretion from NP-specific T cells.
# FIG. 12 illustrates a similar analysis performed using the NP system.
# A2/Kb mice = assay: Immunization with gp100-154 peptides plus or minus helper CD4 peptide, CTL assay (FIGS. 6, 8, 13); type: in vivo, mouse; conditions: for CTL responses / cytotoxicity at three weeks and three months: s.c. immunization, FIG. 13
# Description: Results shown represent the mean value of four individual mice for each group.
# FIG. 8. The presence of a helper CD4 hepatitis B peptide is essential for the generation of CTL responses against a CD8 peptide. A2/Kb mice were inoculated intranasally with hPER1-FVYVW-154 peptide at different doses from 50 nmoles to 1 nmoles with or without helper peptide.
# FIG. 13. Induction of long-term immunity following hPER1-FVYVW-gp100-154 peptide immunization. CTL responses in A2/Kb mice following 3 weeks or 3 months subcutaneous immunization with gp100-154 epitope alone or in association with hPER1-FVYVW. […] Short-term (3 weeks) as well as long-term (3 months) T cell responses are observed in 4/4 or ¾ mice respectively following hPEr1-FVYVW-154 immunization.
# (§1) In carrying out the experiments described in FIGS. 6 and 13, mice were immunized by the specified route with 50 nmol (if not specified otherwise) of peptide plus 50 nmol of a hepatitis B epitope in mice to serve as a helper CD4 peptide. Three weeks after the first injection a boost was carried out with the same regimen, and three weeks after that, spleens were harvested and homogenized to a single suspension. Whole splenocytes were placed into culture with 0.5 ug/ml of the epitope peptide and incubated at 37 degrees for five days. A CTL assay was conducted on day five of culture after Ficoll treatment to purify live cells. Controls that were used are matched Kb or A2 binding peptides.
# C57BL/6 mice [5] = assay: Immunization with […] conjugates, CTL assay (FIGS. 7, 9, 10); type: in vivo, mouse; conditions: for cytotoxicity levels, adjuvant free immunization: s.c. without adjuvant; for CTL responses / cytotoxicity, Tat versus hPER1 conjugates: s.c., DEVWEL linker, FIG. 7
# Description: FIG. 7. In vivo induction of T cell responses using hPER1 or Tat peptides conjugated to […] epitope. Mice were immunized subcutaneously with […] peptide associated to either Tat or hPER1 with the DEVWEL linker sequence. Results shown in this figure represent the mean value of 4 individual mice for each group.
# FIG. 9. […] C57BL/6 mice were immunized intradermally with different doses of hPER1-SGQL-[…] with or without helper peptide.
# FIG. 10. In vivo induction of immunity following adjuvant free peptide immunization with hPER1 associated to […] in the presence of different linker sequences.
# as §1
# RMA cells = assay: Sensitization of RMA target cells for CTL lysis, chromium release assay; type: cell-based, mouse; conditions: 10 pg/ml peptide, 1 hour at 37° C., 4-hour chromium release, T cells of influenza-immunized C57BL/6 mice
# Method: (§2) FIG. 1. In vitro sensitization of target cells for peptide-specific lysis by hPER1 conjugates.
# To determine whether hPER1-CTL conjugates can form CTL target structures, ^51Cr-labeled RMA cells were pulsed with 10^−11 g/ml NP peptide ([…]) or hPER1-NP peptide ([…]), or were left untreated (no peptide) and incubated for 1 hour at 37° C. The cells were then washed and tested for CTL recognition in a standard 4-hour chromium release assay, using T cells obtained from the spleens of C57BL/6 mice immunized with influenza virus.
# [6] = test system: HLA-A2/K^b transgenic mice; assay: s.c. immunization without adjuvant, CTL assay (FIG. 3B); type: in vivo, mouse; conditions: 100 μg s.c. plus T-helper peptide, no adjuvant, boosts days 14 and 28
# Description: Mice were similarly boosted on days 14 and 28. […] Average responses from each group are shown.
# P815-A2/K^b cells = assay: Sensitization of P815-A2/K^b target cells for CTL lysis, chromium release assay; type: cell-based, mouse
# Method: as §2
# Further, ^51Cr-labeled P815-A2/K^b cells were pulsed with 10^−6 g/ml 280-9V peptide ([…]) or hPER1-280-9V ([…]) or were left untreated (no peptide) and incubated for 1 hour at 37° C. The cells were then washed and tested for CTL recognition in a standard 4-hour chromium release assay, using T cells obtained from the spleens of HLA-A2/K^b transgenic mice immunized with 280-9V peptide in incomplete Freund's adjuvant. Where indicated, 5 μg/ml brefeldin A (BFA) was included in the assay, to block the surface expression of nascent class I MHC molecules. […] The level of CTL killing is reduced if the hPER1-280-9V-pulsed target cells are treated with brefeldin A, which blocks the intracellular transport of newly synthesized MHC molecules.
# [7] = test system: PBMCs from an HLA-A2-positive patient; assay: In vitro induction of human CTL in PBMC culture, chromium release assay; type: cell-based; conditions: repeated in vitro stimulation, day 42, C1R-A2 target cells pulsed with 280-9V
# Method: FIG. 2. In vitro induction of human T cell responses using a hPER1 conjugate peptide.
# Peripheral blood mononuclear cells (PBMCs) from an HLA-A2-positive patient were cultured in the presence of IL-2 (50 U/ml), IL-7 (10 ng/ml), LPS (10 μg/ml), CD40-ligand expressing 3T3 cells, and peptide (10 μg/ml of 280-9V or hPER1-280-9V). On days 11, 22, and 32 the cells were restimulated by culturing in the presence of IL-2 (50 U/ml) and IL-7 (10 ng/ml) and autologous, CD40-ligand activated PBMCs pulsed with peptide (100 μg/ml of 280-9V or hPER1-280-9V) for 3 hours.
# [8] = grades − to + + + +, key not given
substance,measurement,setting,value
"RRHHRRSKAKRSRSIINFEKL [hPER1, no linker, OVA]",CTL responses after peptide-pulsed DC vaccine,C57BL/6 mice [1],generated a stronger response than either DCs pulsed with native SIINFEKL peptide or hPER1-LEQLE-SIINFEKL
"RRHHRRSKAKRSRFVYVWSVYDFFVWL [hPER1, linker FVYVW, TRP-2]",Immunogenicity in mice,mice; [8],+ + +
"RQIKIWFQNRRMKWKKLKTWGQYWQV [AntpHD, linker L, gp100-154]",Immunogenicity in mice,mice; [8],+ + +
"RQIKIWFQNRRMKWKKFVYVWKTWGQYWQV [AntpHD, linker FVYVW, gp100-154]",Immunogenicity in mice,mice; [8],+ + + +
RQIKIWFQNRRMKWKKTWVGQYWQV,CTL responses against gp100-154,[2],a weak response was observed
YGRKKRRQRRRDEVWELSIINFEKL,stimulatory activity of pulsed cells after 30 hours,[3],no reduction in activity
same,Immunogenicity in mice,"mice; mouse, in vivo",+ + +
"RRHHRRSKAKRSRRGVQIASNENMETM [hPER1, linker RGVQI, flu NP366-374]",duration of ability of pulsed cells to stimulate T cells,[4],retain their ability to stimulate T cells out to five days
"RRHHRRSKAKRSRFVYVWKTWGQYWQV [hPER1, linker FVYVW, gp100-154] [listing 1 of 2 here]",CTL responses by different routes of immunization,"A2/Kb mice; 50 nmol peptide plus 50 nmol helper peptide, intradermal, subcutaneous or intranasal",can be generated through different routes of immunization
same,cytotoxicity at 10 nmoles without helper peptide,"A2/Kb mice; intranasal, 10 nmoles, absence of helper peptide",does not induce significant cytotoxicity
same,"T cell cytotoxicity, without helper peptide","A2/Kb mice; intranasal, in the absence of helper peptide",induced much lower levels of cytotoxicity
same,"T cell cytotoxicity, with helper peptide","A2/Kb mice; intranasal, in the presence of helper CD4 hepatitis B peptide",induced significant T cell cytotoxicity
same,CTL responses / cytotoxicity at three weeks and three months,A2/Kb mice,induced cytotoxicity that was detectable for at least three months
same,mice with long-term T cell responses,"A2/Kb mice; s.c., 3 months, 4 mice/group",¾
same,mice with short-term T cell responses,"A2/Kb mice; s.c., 3 weeks, 4 mice/group",4/4
"SVYDFFVWL [TRP2 peptide, unconjugated, reference compound]",Immunogenicity in mice,mice; [8],+ +
same,CTL responses after peptide-pulsed DC vaccine,C57BL/6 mice [1],non immunogenic
"RRHHRRSKAKRSRSGQLSIINFEKL [hPER1, linker SGQL, OVA]",stimulatory activity of pulsed cells after 30 hours,[3],no reduction in activity
same,T cell responses without helper peptide at higher peptide dose,"C57BL/6 mice [5]; intradermal, different doses, absence of helper peptide, FIG. 9",can induce T cell responses in mice
"RRHHRRSKAKRSRLSVYDFFVWL [hPER1, linker L, TRP2]",Immunogenicity in mice,mice; [8],+ +
"RRHHRRSKAKRSRFVYVWKTWGQYWQV [hPER1, linker FVYVW, gp100-154] [listing 2 of 2 here]",Immunogenicity in mice,"mice; mouse, in vivo",+ + + +
GYGRKKRRQRRR-LEQLE-SIINFEKL,CTL responses after peptide-pulsed DC vaccine,C57BL/6 mice [1],less immunogenic than TAT-SIINFEKL without linker
"RRHHRRSKAKRSRDEVWELSIINFEKL [hPER1, linker DEVWEL, OVA]","cytotoxicity levels, adjuvant free immunization",C57BL/6 mice [5]; FIG. 10,comparable
same,"CTL responses / cytotoxicity, Tat versus hPER1 conjugates",C57BL/6 mice [5],gave the best CTL responses as compared to the positive control SIINFEKL in IFA
same,"CTL responses / cytotoxicity, Tat versus hPER1 conjugates",C57BL/6 mice [5]; listed as hPER1-DEVWEL-SIINFEKL,induced a greater level of cytotoxicity as compared to Tat-DEVWEL-SIINFEKL at all E:T ratios tested
same,Immunogenicity in mice,mice; [8],+ + + +
"RRHHRRSKAKRSRFVYVWSIINFEKL [hPER1, linker FVYVW, OVA]","cytotoxicity levels, adjuvant free immunization",C57BL/6 mice [5]; FIG. 10,comparable
same,Immunogenicity in mice,mice; [8],+ + + +
"GRRHHRRSKAKRSRASNENMETM [hPER1, no linker, flu NP366-374]",duration of ability of pulsed cells to stimulate T cells,[4],retain their ability to stimulate T cells out to five days
same,sensitization of RMA target cells for CTL-mediated lysis,RMA cells,can be sensitized for CTL-mediated lysis
SIINFEKL [reference compound],incubation time by which pulsed cells lose their stimulatory capacity,[3]; IFN-γ ELISPOT with SIINFEKL-specific T cells,≤ 24 h
same,"cytotoxicity levels, peptide in IFA","C57BL/6 mice [5]; administered with incomplete Fruend's adjuvant, FIG. 10",comparable
KTWGQYWQV [reference compound],CTL responses / cytotoxicity at three weeks and three months,A2/Kb mice; listed as 154,did not induce cytotoxicity at either three weeks or three months; also recorded: does not generate significant CTL responses
"RRHHRRSKAKRSRSVYDFFVWL [hPER1, no linker, TRP-2]",Immunogenicity in mice,mice; [8],+ +
RRHHRRSKAKRSRYLEPGPVTV [hPER1-280-9V],peptide-specific CTL responses,[6],can be induced
same,level of CTL killing of peptide-pulsed target cells treated with brefeldin A,P815-A2/K^b cells; 5 μg/ml brefeldin A in the assay,reduced
same,sensitization of P815-A2/K^b target cells for CTL recognition,"P815-A2/K^b cells; 10^−6 g/ml peptide, 1 hour at 37° C., 4-hour chromium release",can be sensitized
same,induction of 280-9V-specific human CTLs,[7],can be induced
ASNENMETM [reference compound],stimulatory activity of pulsed cells after 24 hours of incubation,[4]; IFN-γ ELISPOT with NP-specific T cells,shows a loss in activity
